# Experimental data reported in patent publication USRE35053E, “Amines useful in producing pharmaceutically active CNS compounds” (The Upjohn Company, priority 1992, dated 1995).
# Structures can show the parent of a compound that is named as a salt.
# Columns and labels:
# [1] = system: conjugated diene formation in rat brain synaptosomes; experiment: Conjugated diene formation assay (lipid peroxidation); type: biochemical; settings: 100 μM (or less) of the drug, active = 50% inhibition or more
# Method: The formation of conjugated dienes as assayed by Braughler. […] Bucher, Fund.
# Synaptosomal suspension (10 μl) is added to 1 ml of physiological (normal) saline containing 1% Lubrol PX (Sigma Chemical Co. St. Louis, Mo.). […] The reaction is started by the rapid addition of 200 μM ferrous ammonium sulfate prepared in argon-purged water. The sample is rapidly mixed and the change in absorbance at 232nm is followed in a Gilford Response Spectrophotometer equipped with a rapid sampler. Due to the rapidity of the reaction, rapid addition of the iron, rapid mixing and sampling are obligatory to the accuracy of the assay. For best results absorbance readings of one/sec should be started within 5 sec following the addition of iron. The initial linear rate of absorbance change during the first 30 sec of reaction are compared with the rate of a reaction containing all reagents except synaptosomes. The difference in rates is the rate of conjugated diene formation. Rates with drug are compared to rates obtained in the absence of drug and the % inhibition is calculated.
# arachidonic acid = experiment: Arachidonic Acid Antagonism Assay (AAAA); type: in vivo, mouse (Charles River male CF-1); settings: mice; for arachidonic acid antagonism (elevation of LD50 of arachidonic acid): IV, 15 min before sodium arachidonate, outside 95% confidence interval of control LD50
# Method: While not necessary to determine arachidonic acid antagonism, the above assay has been modified as follows: Charles River male CF-1 mice weighing […] are treated IV with the test compound dissolved in 1.0% Tween-80 and 0.1% hydrochloric acid in distilled water. 0 2 ml total volume. Fifteen minutes later sodium arachidonate (90% pure) in physiological (normal) […] is injected into the tail vein. The LD50 is measured using the Spearman-Karber method with a log dose interval of 0.05 (N-6). Compounds which elevate the LD50 outside of the 95% confidence interval of the control LD50 are considered to be "active".
# [2] = system: induced mucous secretions; experiment: inhibition of mucous secretion assay of Johnson; settings: for inhibition of mucous secretion: inhibit or block enhancement of induced mucous secretions; for preferred mucous inhibitors per test results: ranking in words
# Description: The inhibition of mucous secretion assay of Johnson Int. […] According to this procedure compounds which inhibit or block enhancement of induced mucous secretions when tested are considered to be "active".
# [3] = system: MDA formation in rat brain synaptosomes; experiment: Malonyldialdehyde (MDA) Formation Assay (lipid peroxidation); type: biochemical; settings: active = 50% inhibition or more at 200 μM or less
# Description: The MDA assays of Buege and Aust, Methods in Enzymology, Fleisher and Packer Editors. Academic Press, 1978, New York, Vol LII, p 302-310 and Kohn and Liversedge, J. Pharmacol. Exp. Ther. 82. […] Since iipid peroxidation is involved in the pathophysiology of central nervous system trauma, compounds which inhibit MDA formation are useful in treating the conditions listed below.
# While not necessary to determine MDA formation, the above assays have been modified as follows: rat brain synaptosomes are prepared as described in the Example about the conjugated diene assay, except that the final wash of the synaptosomes and final suspension are in physiological (normal) saline in which the pH has been adjusted to 7 0. The synaptosomes are incubated for 10 min at 37° in physiological (normal) saline pH 7.0 (total volume=100 ul) containing; 10 ul synaptosomal suspension. 10% DMSO plus or minus drug. 150 uM Fe^+++ and 50 uM Fe^++. The incubation is started by the rapid addition of iron to the otherwise complete reaction. The iron solutions are prepared fresh as ferric chloride and ferrous ammonium sulfate in argon-purged water. Following the 10 min incubation, the reaction is stopped by the addition of 500 ul ice-cold 12% trichloroacetic acid prepared in 0.5 N hydrochloric acid. Water (300 ul) is then added along with 100 ul of freshly prepared thiobarbituric acid (3.3% in 0.5N sodium hydroxide) and 10 ul of 5mM desferrioxamine. The sample is then heated in a boiling water bath for 20 minutes. The samples are cooled and centrifuged for 15 minutes at 1500 xg and the absorbance of the supernatant fraction is read at 532 nm. The % inhibition of MDA formation is calculated by dividing the absorbance of sample containing drug by the absorbance of samples incubated without drug. Reaction blanks are samples incubated in the absence of iron A compound that inhibits MDA formation by 50% or more at a concentration of 200μM or less is considered "active".
# interleukin-1 = experiment: inhibition of interleukin-1 induced T cell proliferation assay; type: cell-based; settings: active = >30% at 10^-6 M
# Description: The inhibition of interleukin-1 induced T cell proliferation assay, Proc. Nat. […] Since people with arthritis make excess interleukin 1, compounds which inhibit the activity of interleukin 1 are useful in the treatment of arthritis. According to this procedure compounds which inhibit the activity of interleukin 1 greater that 30% at 10^-6 M are considered to be "active".
# angiogenesis = experiment: fertile egg or chick embryo assay of Folkman (inhibition of angiogenesis / tumor growth); type: in vivo; settings: chick embryo; for inhibition of angiogenesis: 50 μg/10 μl with heparin, avascular zone 4 mm or greater
# Method: According to this procedure compounds which are considered to be "active" (i.e, antiangiogenic) give an avascular zone of 4 mm or greater in some embryos when tested at 50 μg/10 μl in the presence of 50 μg/10 μ of heparin.
Compound,inhibition of conjugated diene formation [1],arachidonic acid antagonism (elevation of LD50 of arachidonic acid) (arachidonic acid),inhibition of mucous secretion [2],inhibition of MDA formation [3],inhibition of interleukin 1 (interleukin-1),also measured
"CCN(CC)c1cc(N2CCN(CC(=O)[C@@]3(O)CC[C@H]4[C@@H]5CCC6=CC(=O)CC[C@]6(C)C5=CC[C@@]43C)CC2)nc(N)n1 [Example 4, 21-[4-[2.Amino-6-(diethylamino)-4-pyrimidinyl]1-piperazinyl]-17α-hydroxypregna-4,9(11)-diene-3,20-dione]",demonstrate such activity,demonstrate arachidonic acid antagonism,demonstrate such activity,,,
"CC(CN1CCN(c2cc(N3CCCC3)nc(N3CCCC3)n2)CC1)[C@H]1CC[C@H]2[C@@H]3CCC4=CC(=O)C=C[C@]4(C)[C@H]3CC[C@]12C.CS(=O)(=O)O.O (stereo partly shown) [Example 112, 21-[4-(2,6-Bis(1-pyrrolidinyl)-4-pyrimidinyl)-1-piperazinyl]-20-methylpregna-1,4-dien-3-one methanesulfonate, hydrate]",demonstrate such activity,,,,,
"C[C@@H]1C[C@H]2[C@@H]3CCC4=CC(=O)C=C[C@]4(C)C3=CC[C@]2(C)[C@H]1C(=O)CN1CCN(c2cc(N3CCOCC3)nc(N3CCOCC3)n2)CC1 [Example 86, 16α-methyl-21-[4-[2,6-bis(4-morpholino)-4-pyrimidinyl]-1-piperazinyl]pregna-1,4,9(11)-triene-3,20-dione]",demonstrate such activity,,,demonstrate such activity,demonstrate inhibition of interleukin 1,inhibition of angiogenesis (angiogenesis): demonstrate inhibition of angiogenesis
"C[C@@H]1C[C@H]2[C@@H]3CCC4=CC(=O)C=C[C@]4(C)[C@H]3[C@H](O)C[C@]2(C)[C@H]1C(=O)CN1CCN(c2cc(N3CCCC3)nc(N3CCCC3)n2)CC1 [Example 84, 11α-hydroxy-16α-methyl-21-[4-[2,6-bis(1-pyrrolidinyl)-4-pyrimidinyl]-1-piperazinyl]pregna-1,4-diene 3,20-dione]",demonstrate such activity,,,,demonstrate inhibition of interleukin 1,
"CS(=O)(=O)O.C[C@]12CCC(=O)C=C1CC[C@@H]1C2=CC[C@@]2(C)[C@H]1CC[C@]2(O)C(=O)CN1CCN(c2ccccn2)CC1 [Example 2, 17α-Hydroxy-21-[4-(2-pyridinyl)-1piperazinyl]pregna-4,9(11)-diene-3,20di-one methanesulfonate]",demonstrate such activity,demonstrate arachidonic acid antagonism,demonstrate such activity,,,preferred mucous inhibitors per test results [2]: preferred mucous inhibitors; % of Embryos with 4 mm or Greater A vascular Zone (angiogenesis; 50 μg/10 μl in the presence of heparin): 85%
"C[C@]12CCC(=O)C=C1CC[C@@H]1C2=CC[C@@]2(C)[C@H]1CC[C@]2(O)C(=O)CN1CCN(c2cc(N3CCOCC3)nc(N3CCOCC3)n2)CC1 [Example 105, 21-[4-(2,6-Bis(4-morpholino)-4-pyrimidinyl)-1-piperazinyl]-17α-hydroxypregna-4,9(11)-diene-3,20-dione dihydrochloride, hydrate]",,,demonstrate such activity,,demonstrate inhibition of interleukin 1,preferred mucous inhibitors per test results [2]: preferred mucous inhibitors; inhibition of angiogenesis (angiogenesis): demonstrate inhibition of angiogenesis
"CS(=O)(=O)O.CS(=O)(=O)O.C[C@@H]1C[C@H]2[C@@H]3CCC4=CC(=O)C=C[C@]4(C)C3=CC[C@]2(C)[C@H]1C(=O)CN1CCN(c2cc(N3CCCC3)nc(N3CCCC3)n2)CC1 [Example 83, 16α-Methyl-21-[4-(2,6-bis(1-pyrrolidinyl)-4-pyrimidinyl]-1-piperazinyl]pregna-1,4,9(11)-triene-3,20-dione dimethane-sulfonate]",demonstrate such activity,,demonstrate such activity,demonstrate such activity,demonstrate inhibition of interleukin 1,preferred mucous inhibitors per test results [2]: preferred mucous inhibitors; inhibition of angiogenesis (angiogenesis): demonstrate inhibition of angiogenesis
"C[C@]12C=CC(=O)C=C1CC[C@@H]1C2=CC[C@]2(C)[C@@H](C(=O)CN3CCN(c4cc(N5CCCC5)nc(N5CCCC5)n4)CC3)CC[C@@H]12.Cl.Cl [Example 111, 21-[4-(2,6-Bis(1-pyrrolidinyl)-4-pyrimidinyl)-1-piperazinyl]pregna-1,4,9(11)-triene-3,20-dione dihydrochloride]",demonstrate such activity,,,,,
"C[C@]12CCC(=O)C=C1CC[C@@H]1C2=CC[C@@]2(C)[C@H]1CC[C@]2(O)C(=O)CN1CCC(O)(c2ccc(C(F)(F)F)cc2)CC1 [Example 5, 17α-Hydroxy-21-[4-hydroxy-4 (4-trifiuoromethyl)phenyl 1-piperidinyl]pregna-4,9(11)-diene-3 20-dione]",demonstrate such activity,,,,,
"C[C@H]1C[C@@H]2C(=CC[C@@]3(C)[C@H]2CC[C@]3(O)C(=O)CN2CCN(c3cc(N4CCCC4)nc(N4CCCC4)n3)CC2)[C@@]2(C)C=CC(=O)C=C12 [Example 47, 17α-hydroxy-6α-methyl-21-[4-[2,6-bis(1-pyrrolidinyl)-4-pyrimidinyl-1-piperazinyl)pregna-1,4,9(11)-triene-3,20-dione,(E)-2-butenodioate salt]",demonstrate such activity,demonstrate arachidonic acid antagonism,,demonstrate such activity,demonstrate inhibition of interleukin 1,
"C[C@]12CCC(=O)C=C1CC[C@@H]1C2=CC[C@@]2(C)[C@H]1CC[C@]2(O)C(=O)CN1CCN(c2cccc(N3CCCC3)n2)CC1 [Example 62, 17α-hydroxy-21-[4-[6-(1-pyrrolidinyl)-2-pyridinyl]-1-piperazinyl]pregna-4,9(11)-diene-3,20-dione(E)-2-butenedioate (1:1) salt]",,demonstrate arachidonic acid antagonism,,demonstrate such activity,,"% of Control LD50 (arachidonic acid; 100 mg/kg, LD50 of sodium arachidonate): 138%"
